From patent publication US20230257347A1 (priority 2020, published 2023)
Structures can show the parent of a compound that is named as a salt.

How the values were obtained:
[1] = biological target: Dopamine Receptor D2 (DRD2S) (Homo sapiens, UniProt P14416); assay: cAMP assay, DRD2S; type: cell-based
[2] = biological target: 5-Hydroxytryptamine (Serotonin) Receptor 2B (5-HT2B) (Homo sapiens, UniProt P41595); assay: Calcium flux secondary messenger assay, 5-HT2B; type: cell-based
[3] = biological target: T1, Nicotinic acetylcholine Receptor α4 β2 (nAChR(a4/b2)) (Homo sapiens, UniProt P17787+P43681); assay: cell-based
T1 construct: expressed in transfected cells
T1 sequence (P43681 29-627 limits assumed): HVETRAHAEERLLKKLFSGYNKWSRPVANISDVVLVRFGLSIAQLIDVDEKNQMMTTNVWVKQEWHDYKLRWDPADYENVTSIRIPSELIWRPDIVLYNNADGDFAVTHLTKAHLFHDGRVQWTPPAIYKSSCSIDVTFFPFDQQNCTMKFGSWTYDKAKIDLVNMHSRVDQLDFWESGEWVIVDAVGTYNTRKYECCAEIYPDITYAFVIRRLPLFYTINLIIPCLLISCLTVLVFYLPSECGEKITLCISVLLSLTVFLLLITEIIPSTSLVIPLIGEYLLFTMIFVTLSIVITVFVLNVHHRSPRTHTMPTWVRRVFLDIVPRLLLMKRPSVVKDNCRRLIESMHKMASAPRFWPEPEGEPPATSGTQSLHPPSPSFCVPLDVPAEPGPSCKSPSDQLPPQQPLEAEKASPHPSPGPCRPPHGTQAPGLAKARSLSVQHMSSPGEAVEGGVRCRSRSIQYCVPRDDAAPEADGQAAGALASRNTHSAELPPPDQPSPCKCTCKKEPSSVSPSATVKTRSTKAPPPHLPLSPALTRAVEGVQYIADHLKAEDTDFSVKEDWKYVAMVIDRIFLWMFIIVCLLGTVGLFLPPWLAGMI
T1 sequence (P17787 26-502): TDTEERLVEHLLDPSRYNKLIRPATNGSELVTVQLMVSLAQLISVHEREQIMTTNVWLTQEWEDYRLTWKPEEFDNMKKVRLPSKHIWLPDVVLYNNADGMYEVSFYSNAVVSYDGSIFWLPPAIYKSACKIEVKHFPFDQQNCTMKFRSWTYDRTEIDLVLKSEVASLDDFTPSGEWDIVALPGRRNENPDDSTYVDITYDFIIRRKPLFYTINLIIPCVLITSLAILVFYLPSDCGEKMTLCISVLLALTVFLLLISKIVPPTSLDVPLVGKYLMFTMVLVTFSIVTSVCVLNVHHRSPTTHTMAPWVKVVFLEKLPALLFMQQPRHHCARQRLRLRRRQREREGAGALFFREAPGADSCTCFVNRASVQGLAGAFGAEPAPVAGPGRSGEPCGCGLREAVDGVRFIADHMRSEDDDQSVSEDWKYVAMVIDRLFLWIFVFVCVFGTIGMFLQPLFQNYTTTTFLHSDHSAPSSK

[4] = biological target: T2, 5-Hydroxytryptamine (Serotonin) Receptor 3A (5-HT3A) (Homo sapiens, UniProt P46098); assay: Ion channel assay, 5-HT3A; type: cell-based
T2 sequence (P46098 24-478): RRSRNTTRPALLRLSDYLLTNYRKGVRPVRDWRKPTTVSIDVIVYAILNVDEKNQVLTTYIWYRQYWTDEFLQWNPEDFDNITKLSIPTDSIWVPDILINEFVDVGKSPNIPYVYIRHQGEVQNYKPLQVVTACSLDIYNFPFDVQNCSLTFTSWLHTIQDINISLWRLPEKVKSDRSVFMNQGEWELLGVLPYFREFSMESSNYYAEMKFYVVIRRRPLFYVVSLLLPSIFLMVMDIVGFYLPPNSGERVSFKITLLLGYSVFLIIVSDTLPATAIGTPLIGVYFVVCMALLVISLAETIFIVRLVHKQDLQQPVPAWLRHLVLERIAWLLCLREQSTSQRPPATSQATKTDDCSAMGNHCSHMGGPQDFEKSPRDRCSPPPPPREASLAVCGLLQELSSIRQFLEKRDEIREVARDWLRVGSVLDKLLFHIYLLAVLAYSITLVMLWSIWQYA

[5] = biological target: T3, Adrenergic Receptor α2A (ADRA2A) (Homo sapiens, UniProt P08913); assay: cAMP assay, ADRA2A; type: cell-based
T3 sequence (P08913 1-465): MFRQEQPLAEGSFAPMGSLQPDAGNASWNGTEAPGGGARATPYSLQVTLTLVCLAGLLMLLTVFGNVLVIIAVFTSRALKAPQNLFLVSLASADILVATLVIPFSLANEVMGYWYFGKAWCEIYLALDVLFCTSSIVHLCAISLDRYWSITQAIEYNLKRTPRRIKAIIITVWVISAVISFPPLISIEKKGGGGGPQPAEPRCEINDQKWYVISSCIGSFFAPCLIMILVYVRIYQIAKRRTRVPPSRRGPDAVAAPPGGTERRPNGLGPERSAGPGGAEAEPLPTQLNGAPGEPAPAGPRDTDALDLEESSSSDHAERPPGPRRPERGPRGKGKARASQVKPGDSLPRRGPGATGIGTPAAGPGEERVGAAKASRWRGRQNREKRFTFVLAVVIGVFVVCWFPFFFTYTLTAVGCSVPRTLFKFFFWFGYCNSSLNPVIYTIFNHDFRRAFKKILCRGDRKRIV

[6] = biological target: T4, Serotonin transporter (SERT) (Homo sapiens, UniProt P31645); assay: cell-based
T4 construct: expressed in transfected cells
T4 sequence (P31645 whole entry): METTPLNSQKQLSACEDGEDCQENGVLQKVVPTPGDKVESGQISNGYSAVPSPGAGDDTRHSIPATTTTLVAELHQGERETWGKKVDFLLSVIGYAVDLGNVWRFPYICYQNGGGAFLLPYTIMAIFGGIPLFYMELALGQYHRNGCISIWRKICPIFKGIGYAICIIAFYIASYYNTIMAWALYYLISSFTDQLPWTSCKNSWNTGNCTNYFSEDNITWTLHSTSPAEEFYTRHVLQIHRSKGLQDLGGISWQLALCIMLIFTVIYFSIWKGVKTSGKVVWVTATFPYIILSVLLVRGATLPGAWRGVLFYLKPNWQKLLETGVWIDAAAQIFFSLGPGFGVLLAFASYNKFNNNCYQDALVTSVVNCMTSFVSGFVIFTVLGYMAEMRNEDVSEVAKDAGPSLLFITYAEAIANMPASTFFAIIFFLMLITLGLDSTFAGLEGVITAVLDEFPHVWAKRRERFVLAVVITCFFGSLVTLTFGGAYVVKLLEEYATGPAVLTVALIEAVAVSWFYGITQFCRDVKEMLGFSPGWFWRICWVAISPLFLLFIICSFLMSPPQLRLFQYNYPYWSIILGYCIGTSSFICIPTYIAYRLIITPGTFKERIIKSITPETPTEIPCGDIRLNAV

[7] = biological target: Muscarinic acetylcholine Receptor M3 (CHRM3) (Homo sapiens, UniProt P20309); assay: cell-based
Muscarinic acetylcholine Receptor M3 (CHRM3), sequence (P20309 whole entry): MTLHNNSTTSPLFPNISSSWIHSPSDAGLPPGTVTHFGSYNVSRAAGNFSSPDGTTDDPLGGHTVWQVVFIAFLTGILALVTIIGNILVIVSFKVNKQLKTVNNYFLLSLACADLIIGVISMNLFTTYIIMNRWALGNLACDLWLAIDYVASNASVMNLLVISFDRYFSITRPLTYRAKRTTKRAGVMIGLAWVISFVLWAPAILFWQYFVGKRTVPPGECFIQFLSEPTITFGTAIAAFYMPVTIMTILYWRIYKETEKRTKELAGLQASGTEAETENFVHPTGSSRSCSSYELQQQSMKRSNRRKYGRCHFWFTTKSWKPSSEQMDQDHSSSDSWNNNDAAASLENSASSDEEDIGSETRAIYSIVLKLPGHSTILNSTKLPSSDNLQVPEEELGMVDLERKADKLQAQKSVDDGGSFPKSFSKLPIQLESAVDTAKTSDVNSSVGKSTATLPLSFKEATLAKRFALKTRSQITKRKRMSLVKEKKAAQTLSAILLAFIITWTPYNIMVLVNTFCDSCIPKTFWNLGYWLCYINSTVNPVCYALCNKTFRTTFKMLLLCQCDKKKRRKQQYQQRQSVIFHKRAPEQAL

[8] = biological target: T5, CAMP-specific 3′,5′-cyclic phospho-diesterase (PDE4D2) (Homo sapiens, UniProt Q08499); assay: Enzymatic assay, PDE4D2; type: biochemical
T5 construct: purchased Signal Chem
T5 sequence (Q08499 303-809 limits assumed): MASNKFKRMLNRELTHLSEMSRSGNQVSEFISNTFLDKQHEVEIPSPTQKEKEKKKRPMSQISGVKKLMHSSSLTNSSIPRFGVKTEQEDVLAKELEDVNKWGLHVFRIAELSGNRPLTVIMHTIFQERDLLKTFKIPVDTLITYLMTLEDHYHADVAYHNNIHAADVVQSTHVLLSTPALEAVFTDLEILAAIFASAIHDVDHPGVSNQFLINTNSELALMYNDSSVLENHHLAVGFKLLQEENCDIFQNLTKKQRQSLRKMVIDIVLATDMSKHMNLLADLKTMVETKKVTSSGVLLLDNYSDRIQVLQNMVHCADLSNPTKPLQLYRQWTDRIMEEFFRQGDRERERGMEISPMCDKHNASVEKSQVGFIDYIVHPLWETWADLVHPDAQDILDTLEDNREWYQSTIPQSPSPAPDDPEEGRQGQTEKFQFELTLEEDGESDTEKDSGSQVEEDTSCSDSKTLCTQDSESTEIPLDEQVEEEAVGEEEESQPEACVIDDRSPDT

[9] = biological target: Histamine Receptor H2 (HRH2) (Homo sapiens, UniProt P25021); assay: cAMP assay, HRH2; type: cell-based
Histamine Receptor H2 (HRH2), sequence (P25021 whole entry): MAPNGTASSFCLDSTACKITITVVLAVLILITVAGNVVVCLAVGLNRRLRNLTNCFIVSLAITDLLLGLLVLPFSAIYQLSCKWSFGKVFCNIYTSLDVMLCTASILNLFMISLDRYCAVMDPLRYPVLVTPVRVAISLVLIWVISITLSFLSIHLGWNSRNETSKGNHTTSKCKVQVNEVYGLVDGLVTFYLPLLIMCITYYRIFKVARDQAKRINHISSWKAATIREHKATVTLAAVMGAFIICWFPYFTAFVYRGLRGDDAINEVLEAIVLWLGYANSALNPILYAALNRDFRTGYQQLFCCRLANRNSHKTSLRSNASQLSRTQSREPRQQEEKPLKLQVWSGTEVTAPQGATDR

[10] = biological target: Opioid Receptor Delta 1 (OPRD1) (Homo sapiens, UniProt P41143); assay: cAMP assay, OPRD1; type: cell-based
Opioid Receptor Delta 1 (OPRD1), sequence (P41143 whole entry): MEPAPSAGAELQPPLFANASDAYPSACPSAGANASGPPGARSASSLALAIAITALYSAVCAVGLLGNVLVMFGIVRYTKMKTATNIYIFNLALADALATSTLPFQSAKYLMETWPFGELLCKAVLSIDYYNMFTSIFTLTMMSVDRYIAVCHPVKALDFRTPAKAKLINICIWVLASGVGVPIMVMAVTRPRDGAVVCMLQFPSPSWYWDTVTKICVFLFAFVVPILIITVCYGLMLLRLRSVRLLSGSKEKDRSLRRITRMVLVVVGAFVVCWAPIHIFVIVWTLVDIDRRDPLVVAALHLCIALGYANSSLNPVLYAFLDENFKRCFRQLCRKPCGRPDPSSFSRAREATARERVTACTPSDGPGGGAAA

[11] = biological target: 5-Hydroxytryptamine (Serotonin) Receptor 1B (5-HT1B) (Homo sapiens, UniProt P28222); assay: cAMP secondary messenger assay, 5-HT1B; type: cell-based
[12] = biological target: Arginine Vasopressin Receptor 1A (AVPR1A) (Homo sapiens, UniProt P37288); assay: Calcium flux assay, AVPR1A; type: cell-based
Arginine Vasopressin Receptor 1A (AVPR1A), sequence (P37288 whole entry): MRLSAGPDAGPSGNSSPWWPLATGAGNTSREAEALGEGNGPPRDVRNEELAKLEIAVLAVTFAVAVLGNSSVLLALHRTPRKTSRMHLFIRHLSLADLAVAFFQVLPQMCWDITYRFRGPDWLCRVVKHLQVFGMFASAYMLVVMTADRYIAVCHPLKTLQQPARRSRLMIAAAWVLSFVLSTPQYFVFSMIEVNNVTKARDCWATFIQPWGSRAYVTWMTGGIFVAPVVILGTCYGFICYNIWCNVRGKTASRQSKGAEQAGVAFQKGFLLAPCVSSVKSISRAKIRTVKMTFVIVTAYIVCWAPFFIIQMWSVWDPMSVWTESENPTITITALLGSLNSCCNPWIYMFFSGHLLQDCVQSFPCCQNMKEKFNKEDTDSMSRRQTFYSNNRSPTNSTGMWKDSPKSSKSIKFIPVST

[13] = biological target: Cannabinoid Receptor 1 (CNR1) (Homo sapiens, UniProt P21554); assay: cAMP assay, CNR1; type: cell-based
Cannabinoid Receptor 1 (CNR1), sequence (P21554 whole entry): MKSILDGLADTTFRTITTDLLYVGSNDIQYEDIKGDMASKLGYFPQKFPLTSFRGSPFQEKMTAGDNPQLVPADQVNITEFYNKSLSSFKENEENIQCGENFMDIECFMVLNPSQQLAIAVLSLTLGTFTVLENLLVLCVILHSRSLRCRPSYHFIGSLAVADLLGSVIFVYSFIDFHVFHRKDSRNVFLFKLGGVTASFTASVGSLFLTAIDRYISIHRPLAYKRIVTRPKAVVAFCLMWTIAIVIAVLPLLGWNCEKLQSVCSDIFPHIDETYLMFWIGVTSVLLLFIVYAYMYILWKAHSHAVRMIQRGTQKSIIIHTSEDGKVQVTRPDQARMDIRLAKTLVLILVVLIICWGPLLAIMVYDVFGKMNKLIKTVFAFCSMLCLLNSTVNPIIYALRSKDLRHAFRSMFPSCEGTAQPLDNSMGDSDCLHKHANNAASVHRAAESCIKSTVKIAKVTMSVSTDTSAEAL

MDMA-trained rats = assay: Drug discrimination in rats trained to distinguish MDMA from placebo; type: in vivo; conditions: 1, 2, and 4 mg/kg intraperitoneal

Dopamine Receptor D2 (DRD2S), sequence (P14416 1-414 isoform P14416-2): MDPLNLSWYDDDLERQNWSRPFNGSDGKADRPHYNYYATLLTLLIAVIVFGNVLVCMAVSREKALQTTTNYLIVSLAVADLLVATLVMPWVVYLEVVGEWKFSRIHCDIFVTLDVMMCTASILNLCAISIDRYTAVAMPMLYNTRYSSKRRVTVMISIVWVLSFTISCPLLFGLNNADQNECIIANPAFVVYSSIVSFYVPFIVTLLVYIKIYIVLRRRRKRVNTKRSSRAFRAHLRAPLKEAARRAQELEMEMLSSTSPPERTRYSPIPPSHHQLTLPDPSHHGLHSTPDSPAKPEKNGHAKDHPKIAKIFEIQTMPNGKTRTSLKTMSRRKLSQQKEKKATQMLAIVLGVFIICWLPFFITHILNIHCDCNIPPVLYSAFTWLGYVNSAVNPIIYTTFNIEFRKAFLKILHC

Structure (SMILES): CNC(C)C(=O)c1c[nH]c2ccc(Br)cc12 (centres unmarked) [BK-5Br-NM-AMT, 1-(5-bromo-1H-indol-3-yl)-2-(methylamino) propan-1-one hydrochloride]
- EC50 [1]: > 10 µM
- IC50 [1]: 4.26 µM
- EC50 [2]: > 10 µM
- IC50 [2]: 0.0447 µM
- EC50 [3]: > 10 µM
- IC50 [3]: > 10 µM
- EC50 [4]: > 10 µM
- IC50 [4]: 0.673 µM
- EC50 [5]: > 10 µM
- IC50 [5]: > 10 µM
- IC50 [6]: > 10 µM
- EC50 [7]: > 10 µM
- IC50 [7]: > 10 µM
- IC50 [8]: > 10 µM
- EC50 [9]: > 10 µM
- IC50 [9]: > 10 µM
- EC50 [10]: > 10 µM
- IC50 [10]: > 10 µM
- EC50 [11]: > 10 µM
- IC50 [11]: > 10 µM
- EC50 [12]: > 10 µM
- IC50 [12]: > 10 µM
- EC50 [13]: > 10 µM
- IC50 [13]: > 10 µM

Structure (SMILES): CNC(C)C(=O)c1c[nH]c2ccc(Cl)cc12 (centres unmarked) [BK-5Cl-NM-AMT, 1-(5-chloro-1H-indol-3-yl)-2-(methylamino) propan-1-one hydrochloride]
- EC50 [1]: > 10 µM
- IC50 [1]: 6.22 µM
- EC50 [2]: > 10 µM
- IC50 [2]: 0.0921 µM
- EC50 [3]: > 10 µM
- IC50 [3]: > 10 µM
- EC50 [4]: > 10 µM
- IC50 [4]: 0.965 µM
- EC50 [5]: > 10 µM
- IC50 [5]: > 10 µM
- IC50 [6]: > 10 µM
- EC50 [7]: > 10 µM
- IC50 [7]: > 10 µM
- IC50 [8]: > 10 µM
- EC50 [9]: > 10 µM
- IC50 [9]: > 10 µM
- EC50 [10]: > 10 µM
- IC50 [10]: > 10 µM
- EC50 [11]: > 10 µM
- IC50 [11]: > 10 µM
- EC50 [12]: > 10 µM
- IC50 [12]: > 10 µM
- EC50 [13]: > 10 µM
- IC50 [13]: > 10 µM

Structure (SMILES): CNC(C)C(=O)c1c[nH]c2ccc(F)cc12 (centres unmarked) [BK-5F-NM-AMT, 1-(5-Fluoro-1H-indol-3-yl)-2-(methylamino) propan-1-one hydrochloride]
- EC50 [1]: > 10 µM
- IC50 [1]: 5.2 µM
- EC50 [2]: > 10 µM
- IC50 [2]: 0.587 µM
- EC50 [3]: > 10 µM
- IC50 [3]: > 10 µM
- EC50 [4]: > 10 µM
- IC50 [4]: > 30 µM
- EC50 [5]: > 10 µM
- IC50 [5]: > 10 µM
- IC50 [6]: > 10 µM
- EC50 [7]: > 10 µM
- IC50 [7]: > 10 µM
- percent responses on the MDMA-associated lever (MDMA-trained rats; 30 min prior to test, four MDMA-trained rats): significantly and dose-dependently different from those of MDMA
- rate of lever pressing (responses per second) (MDMA-trained rats; control measure): not altered
- IC50 [8]: > 10 µM
- EC50 [9]: > 10 µM
- IC50 [9]: > 10 µM
- EC50 [10]: > 10 µM
- IC50 [10]: > 10 µM
- EC50 [11]: > 10 µM
- IC50 [11]: > 10 µM
- EC50 [12]: > 10 µM
- IC50 [12]: > 10 µM
- EC50 [13]: > 10 µM
- IC50 [13]: > 10 µM
